The text below walks through data of US4451399A, “Imidazolecarboxylic acid derivatives” (priority 1979, dated 1984).

Data set [1] in a line: Concentration in blood after oral administration to mice (oral absorption). The class given is in vivo. The settings on record: Mouse (ICR 5W male), oral 50 mg/kg; for concentration at 0.5 h: 30 minutes; for concentration at 1 h: 60 minutes; for concentration at 1.5 h: 90 minutes. An excerpt:
The imidazolecarboxylic acid derivatives of the present invention have a good oral absorption, as is evident from Table 6.
Concentration in Blood (μg/ml)

In data set [2] the test system is Pseudomonas aeruginosa AJ 2116. In words: Minimum Inhibitory Concentration (MIC) against Pseudomonas aeruginosa AJ 2116 in a culture. In kind it is cell-based. The settings on record: AJ2116, minimum concentration required to inhibit growth of test organism in a culture. On the procedure: Antibacterial activity was determined with regards to the compounds produced in the examples described above. Some of Comparative Minimum Inhibitory Concentrations (MIC) (the minimum concentration of the compound in micrograms per milliliter required to inhibit the growth of the test organism in a culture) obtained using Pseudomonas aeruginosa AJ 2116 as the test organism, are presented in Table 5.

≈ marks a conversion by molar mass, not a printed value. Some results are limits rather than exact numbers.

Take `CC1(C)S[C@@H]2[C@H](NC(=O)[C@H](N)c3ccccc3)C(=O)N2[C@H]1C(=O)O` [Ampicillin, reference compound]: in data set [1], the concentration at 0.5 h stood at 81 µg/mL, the concentration at 1 h came to 306 µg/mL and the concentration at 1.5 h came out at 41 µg/mL. The MIC in data set [2] is above 500 µg/mL.
In data set [2], `CC1(C)S[C@@H]2[C@H](NC(=O)C(C(=O)O)c3ccccc3)C(=O)N2[C@H]1C(=O)O` (stereo partly drawn) [Carbenicillin, reference compound] showed an MIC of 100 µg/mL (≈ 264 µM).
As to `CC1(C)S[C@@H]2[C@H](NC(=O)[C@H](NC(=O)c3[nH]cnc3[N+](=O)[O-])c3ccccc3)C(=O)N2[C@H]1C(=O)O` [Example 1, D-α-(4-nitroimidazole-5-carboxyamide) benzyl penicillin], the MIC in data set [2] came to 12.5 µg/mL (≈ 25.6 µM).
Still for that read-out and setting: the result for `CC1(C)S[C@@H]2[C@H](NC(=O)[C@H](NC(=O)c3[nH]cnc3Cl)c3ccccc3)C(=O)N2[C@H]1C(=O)O` [Example 3] reads 25 µg/mL (≈ 52.3 µM); that for `Cc1nc(S)[nH]c1C(=O)N[C@@H](C(=O)N[C@@H]1C(=O)N2[C@@H]1SC(C)(C)[C@@H]2C(=O)O)c1ccccc1` [Example 8], 25 µg/mL (≈ 51.1 µM).
Take `CCOC(=O)c1nc[nH]c1C(=O)N[C@@H](C(=O)N[C@@H]1C(=O)N2[C@@H]1SC(C)(C)[C@@H]2C(=O)O)c1ccccc1` [Example 13, D-α-(4-ethoxycarbonylimidazole-5-carboxyamide) benzylpenicillin]: in data set [1], the concentration at 0.5 h stood at 340 µg/mL, the concentration at 1 h came out at 97 µg/mL and the concentration at 1.5 h amounted to 40 µg/mL. Also, in data set [2], the MIC came out at 25 µg/mL (≈ 48.5 µM).

In general, MIC refers to the lowest concentration found to suppress growth.
